From patent US20260076949A1, “STABLE MONOHYDRATE OF DF2755A AND PROCESS FOR ITS PREPARATION” (Dompe' Farmaceutici SPA, priority 2023, published 2026)
Each block holds one compound with its values, some of them ahead of it.

Legend:
[1] = Stability test of anhydrous form in climatic chamber (50% R.H., about 25° C., 24 hours); assay type: physicochemical
Protocol: (§1) • Instrument: Mettler DL38, V30 or equivalent • Electrode: Double platinum pin electrode DM 143-SC for Karl Fischer titration. • Titrant: Karl Fischer reagent 5 mg H2O/ml • Solvent: 30 ml of methanol previously neutralized with Karl Fischer reagent. • Procedure: about 0.2 g of the product, accurately weighed, were dissolved in the solvent and titrated with the Karl Fischer reagent.

CXCR1 = molecular target: T1, CXCR1 (Homo sapiens, UniProt P25024); settings: background, literature; cited from earlier work
T1 sequence (P25024 1-350): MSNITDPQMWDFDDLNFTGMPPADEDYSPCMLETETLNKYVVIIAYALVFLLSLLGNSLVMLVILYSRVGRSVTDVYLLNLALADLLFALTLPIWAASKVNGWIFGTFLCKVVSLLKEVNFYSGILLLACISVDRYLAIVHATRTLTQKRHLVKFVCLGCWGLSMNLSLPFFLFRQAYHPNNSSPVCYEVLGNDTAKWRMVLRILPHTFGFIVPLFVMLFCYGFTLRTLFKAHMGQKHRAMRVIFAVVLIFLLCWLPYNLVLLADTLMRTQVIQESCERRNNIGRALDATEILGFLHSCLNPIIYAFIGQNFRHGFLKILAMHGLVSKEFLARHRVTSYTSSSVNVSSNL

CXCR2 = molecular target: T2, CXCR2 (Homo sapiens, UniProt P25025); settings: background, literature; cited from earlier work
T2 sequence (P25025 1-360): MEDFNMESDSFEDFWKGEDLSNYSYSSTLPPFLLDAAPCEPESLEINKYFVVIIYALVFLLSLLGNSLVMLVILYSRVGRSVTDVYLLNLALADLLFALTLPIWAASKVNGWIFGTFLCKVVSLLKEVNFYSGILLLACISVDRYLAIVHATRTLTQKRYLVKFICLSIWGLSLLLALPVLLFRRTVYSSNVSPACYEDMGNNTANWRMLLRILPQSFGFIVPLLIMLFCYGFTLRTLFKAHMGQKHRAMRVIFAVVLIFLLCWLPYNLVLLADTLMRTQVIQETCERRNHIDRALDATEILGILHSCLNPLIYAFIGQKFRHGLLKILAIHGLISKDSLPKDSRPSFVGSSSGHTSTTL

[2] = background, literature; cited from earlier work
[3] = Stability test under accelerated conditions B (40° C. and 75% R.H.); assay type: physicochemical; parameters: key to Appearance: Compl.: Compl: compliant
Protocol: • Apparatus: Agilent HP 1100, HP 1200 or equivalent HPLC system with UV detector • Detector: wavelength: 220 nm • Column: BDS Hypersyl C18, 250×4.6 mm, 5 μm (Thermo) or equivalent • Column temperature: 35° C. • Mobile phase: (A) Buffer solution KH2PO4 0.025M (pH 3.0). Procedure: dissolve 3.4 g of potassium dihydrogen phosphate in water and dilute to 1000 ml with water; adjust to pH 3.0 with dilute phosphoric acid or with potassium hydroxide solutions. (B) acetonitrile. • Flow: 1.3 ml/minute • Injection Volume: 10 μl • Time between injections: 26 min • Diluent: H2O/CH3CN (40/60) • Relative retention time: DF 2755 Rt 11.8 min • Gradient: Table 2
• Chromatographic conditions • Apparatus: Agilent HP 1100, HP 1200 or equivalent HPLC system with UV detector • Detector: wavelength: 294 nm • Column: Chiralpak AS-RH, 150×4.6 mm […] (Daicel) or equivalent • Column temperature: 35° C. • Mobile phase: (A) Buffer solution KH2PO4 0.025M (pH 3.0) Procedure: dissolve 3.4 g of potassium dihydrogen phosphate in water and dilute to 1000 ml with water; adjust to pH 3.0 with dilute phosphoric acid or with potassium hydroxide solutions; (B) acetonitrile • Flow: 0.7 ml/minute • Injection volume: 10 μl • Time between injections: 45 min • Diluent: H2O/CH3CN (40/60) • Eluent: 70% Mobile phase A, 30% Mobile phase B
as §1
(§2) The analysis was carried out on three samples and the results averaged. The limit had to be not more than 10.0%.
(§3) The monohydrate DF2755A was then subjected to stability tests under the following conditions: • A) at 30° C. and 65% R.H. (up to 18 months) and • B) at 40° C. and 75% R.H. (accelerated stability up to 12 months).
(§4) The samples were analysed for appearance, water content, HPLC purity, HPLC assay, HPLC enantiomeric purity and DSC thermal behaviour.

[4] = Stability test under conditions A (30° C. and 65% R.H.); assay type: physicochemical
Protocol: as §3, §4

[5] = Water content by Karl-Fischer of the prepared product; assay type: physicochemical; settings: product as prepared by controlled hydration
Protocol: as §1
[formula] • where • V=ml of the Karl Fischer reagent used in the titration • e=equivalent of the Karl Fischer reagent (mg H2O/ml) • w=weight of the sample in g
as §2

[6] = Particle size distribution (Malvern Mastersizer 3000, Aero S); assay type: physicochemical; settings: powder of Example 3A
Protocol: Particle Size Distribution was measured by Malvern Mastersizer 3000 using Aero S accessory.

[7] = Tapped and bulk density (Ph. Eur. 2.9.34), compressibility index, Hausner ratio; assay type: physicochemical
Protocol: Tapped and Bulk Density were determined with a density tester ERWEKA SMV 102 (Heusenstamm, Germany) according to European Pharmacopeia (Ph. Eur. 2.9.34).
Compressibility Index was calculated according to the formula:
C.I.=100×(tapped density−bulk density)/tapped density.
Hausner ratio was calculated according to the formula:
H.r.=tapped density/bulk density

[8] = 50% R.H., about 25° C., 24 hours

Appearance after exposure [1, 8]: sticky hydrated solid
Water content measured by Karl Fischer analysis after exposure [1, 8]: 17%
Amount of by-product of hydroxylation at position 4 of the thiazole ring (1H-NMR) ([1]; after exposure to humidity, about 25° C., 24 hours): about 50 % mol/mol
Hygroscopicity ([1]; anhydrous form, absorbs water from the environment): highly hygroscopic
Stability conclusion ([1]; under the test conditions (50% R.H., about 25° C., 24 hours)): both physically and chemically unstable
Compound: C[C@H](C(=O)[O-])c1ccc(Nc2nc(C(F)(F)F)cs2)cc1.[Na+] [anhydrous DF2755A, sodium (2S)-2-(4-{[4-(trifluoromethyl)-1,3-thiazol-2-yl]amino}phenyl) propanoate]
Inhibitory activity of CXCR1 receptor (CXCR1): selective dual potent inhibitory activity
Inhibitory activity of CXCR2 receptor (CXCR2): selective dual potent inhibitory activity
Oral pharmacokinetic profile [2]: favorable

Assay % (HPLC) ([3]; 40° C./75% R.H., 0 months): 97.40%
DFL23803 (HPLC) by-product content ([3]; 40° C./75% R.H., 0 months): ≤0.11%
Enantiomeric purity % (HPLC): DF2703Y content ([3]; 40° C./75% R.H., 0 months): 1.0%
Total impurities content % (HPLC) ([3]; 40° C./75% R.H., 0 months): 0.03%
Water content (K.F %) ([3]; 40° C./75% R.H., 0 months): 5.27%
Appearance ([3]; 40° C./75% R.H., 0 months, limit white to ivory powder): Compl.
Appearance ([3]; 40° C./75% R.H., 1 month): Compl.
Assay % (HPLC) ([3]; 40° C./75% R.H., 1 month): 96.93%
DFL23803 (HPLC) by-product content ([3]; 40° C./75% R.H., 1 month): ≤0.11%
Enantiomeric purity % (HPLC): DF2703Y content ([3]; 40° C./75% R.H., 1 month): 1.0%
Total impurities content % (HPLC) ([3]; 40° C./75% R.H., 1 month): 0.03%
Water content (K.F %) ([3]; 40° C./75% R.H., 1 month): 5.27%
Appearance ([3]; 40° C./75% R.H., 3 months): Compl.
Assay % (HPLC) ([3]; 40° C./75% R.H., 3 months): 97.67%
DFL23803 (HPLC) by-product content ([3]; 40° C./75% R.H., 3 months): ≤0.11%
Enantiomeric purity % (HPLC): DF2703Y content ([3]; 40° C./75% R.H., 3 months): 1.0%
Total impurities content % (HPLC) ([3]; 40° C./75% R.H., 3 months): 0.03%
Water content (K.F %) ([3]; 40° C./75% R.H., 3 months): 5.12%
Appearance ([3]; 40° C./75% R.H., 6 months): Compl.
Assay % (HPLC) ([3]; 40° C./75% R.H., 6 months): 96.94%
DFL23803 (HPLC) by-product content ([3]; 40° C./75% R.H., 6 months): ≤0.11%
Enantiomeric purity % (HPLC): DF2703Y content ([3]; 40° C./75% R.H., 6 months): 1.0%
Total impurities content % (HPLC) ([3]; 40° C./75% R.H., 6 months): 0.03%
Water content (K.F %) ([3]; 40° C./75% R.H., 6 months): 4.95%
Appearance ([3]; 40° C./75% R.H., 12 months): Compl.
Assay % (HPLC) ([3]; 40° C./75% R.H., 12 months): 100.3%
DFL23803 (HPLC) by-product content ([3]; 40° C./75% R.H., 12 months): ≤0.11%
Enantiomeric purity % (HPLC): DF2703Y content ([3]; 40° C./75% R.H., 12 months): 1.0%
Total impurities content % (HPLC) ([3]; 40° C./75% R.H., 12 months): 0.02%
Water content (K.F %) ([3]; 40° C./75% R.H., 12 months): 5.17%
Time completely stable ([3]; accelerated conditions B, 40° C. and 75% R.H.): ≥ 12 months
Hygroscopicity ([3]; unchanged water content for at least 12 months under accelerated stability conditions): not hygroscopic
Time completely stable ([4]; 30° C. and 65% R.H.): ≥ 18 months
Water content by Karl Fisher method [5]: 5.27 % by weight
Particle size distribution D(0.1) [6]: 2.09 μm
Particle size distribution D(0.5) [6]: 7.86 μm
Particle size distribution D(0.9) [6]: 25.42 μm
Compressibility index ([7]; 100×(tapped density−bulk density)/tapped density): 30.7
Bulk density ([7]; powder of Example 3A): 0.178 g/mL
Tapped density ([7]; powder of Example 3A): 0.256 g/mL
Hausner ratio ([7]; tapped density/bulk density): 1.44
Compound: C[C@H](C(=O)[O-])c1ccc(Nc2nc(C(F)(F)F)cs2)cc1.O.[Na+] [monohydrate DF2755A, crystalline monohydrate sodium (2S)-2-(4-{[4-(trifluoromethyl)-1,3-thiazol-2-yl]amino}phenyl) propanoate]
DSC profile over time ([3]; conditions B, 40° C./75% R.H.): substantially the same DSC profile over time
DSC profile over time ([4]; 30° C./65% R.H.): substantially the same DSC profile over time
